# Test results published in patent US9333191B2, “Mast cell stabilizers to prevent or treat laminitis” (WILLOWCROFT PHARM INC., priority 2004, dated 2016).
# Entries after “also recorded” stand apart in the source; their conditions may differ. Counter-ions that a name gives are not always drawn.
# Key:
# Bovine Laminitis = format: in vivo, Holstein calves
# From the text: To test the effectiveness of nedocromil sodium to prevent laminitis in cattle, 4 Holstein calves weighing between 325 and 350 pounds were selected for the study and treated as shown in Table 11.
# Starting with day one through day four, and continuing day six through day seven, calves 1 and 2 received Nedocromil sodium pretreatment (1.5 grams infused through the jugular vein) while calves 3 and 4 received no treatment. On each of days one through four and days six through seven, blood samples were obtained from all four calves. No treatments were administered on days eight through ten. On day eleven, calves 1 and 2 were administered 2 grams of Nedocromil sodium. Shortly thereafter, 3.5 pounds of corn starch and 1.5 pounds of sugar mixed in water along with 6×10^11 lactic acid producing and histamine producing organisms were administered to all four calves by releasing the mixture into the rumen of each animal. The process of administering the carbohydrate plus lactic acid producing and histamine producing organisms is known to induce acidosis in cattle.
# The calves' behavior was observed, blood samples taken, and temperatures measured over the next 72 hours.
# [1] = system: Rattus norvegicus basophilic leukemia cells; assay: Lactic acid-stimulated histamine release from basophilic leukemia cells (GC-MS); format: cell-based
# Method: The immortal cell culture line of Rattus norvegicus basophilic leukemia cells was subcultured and incubated at 37° C. overnight. […] After incubation, 50 μL of the supernatant was removed from the cells and stored at −80° C. or derivatized for GC-MS analysis.
# The supernatant was mixed with 135 μl of an acetone reaction solution (ethanol, triethylamine, and 9-methylanthracene) in a 0.5 ml microtube. After mixing for 10 seconds, 55 μl of a chloroform derivatization solution containing […] ethylchloroformate was added and mixed for an additional 10 seconds. Then, 350 μL purified water was added and the two phases allowed to separate for 60 seconds. The organic phase was aspirated and placed into a 2 mL autosampler amber vial with glass inserts and dried with anhydrous sodium sulfate before being capped with GC vial snap caps.
# The organic phase samples were dried and analyzed on an Agilent GC/MS 6890/5975C system with MS Chem Station software. Gas chromatography was carried out using a fused silica DB-WAX precolumn (0.2 m×0.25 mm, dF=0.25 μm), and a fused silica DB-WAX separation column (4 m×0.25 mm, dF=0.25 μm). Ultra high purity He was used as the carrier gas.
# The GC parameters were set as follows: injection time was set to 5 μl using the splitless mode. After 120 seconds the split valve was opened with a 40 mL/minute split flow and front inlet temperature was held at 150° C. The oven temperature was ramped, starting at 60° C. for 2 minutes then increased at 50° C./minute to 160° C., then increased at 20° C./minute to 260° C. and held for 2.5 minutes. The MS detector was maintained at 300° C., with a solvent delay of 7 minutes, ion m/z 192 at 7.0-8.7 minutes, dwell time 100 ms, low-mass resolution; ion m/z 166, m/z 154 at 8.7-11.5 minutes, dwell time per ion 100 ms, low-mass resolution. […]
# Ovine Laminitis = assay: Histological evaluation of treatment in an acute model of ovine laminitis (lactic acid infusion + Compound 48/80); format: in vivo; conditions: Group 2: Nedocromil sodium (42 mg/kg) + lactic acid infusion + Compound 48/80 (1 mg/kg); anesthetized sheep; hematoxylin and eosin sections
# Method: Laminitis can be induced in vivo through systemic acidosis. This study initiated laminitis in anesthetized sheep by inducing acidosis for the purpose of measuring the level of inflammation in the hoof vascular bed associated with initiation of laminitis. Adult Suffolk sheep (at least 6 months old) weighing at least 60 kg were obtained for the study. Animals were housed and research procedures were performed according to the standards provided in the Guide for the Care and Use of Laboratory Animals, 7th Edition, Revised 1996, National Academy Press, Washington, DC. During acclimation, sheep were pasture-housed with access to feed, water, and shelter. Sheep were fed a standard diet of hay and alfalfa in addition to pasture feed. One day prior to surgery, each animal was transferred to an indoor facility with single animal runs. […] The runs had automatic watering devices and animals were fed in steel feeders. Animals were acclimated for a minimum of one day prior to surgery. Sheep were fasted approximately 16 hours overnight on the day prior to surgery. Two sheep served as terminal controls after prolonged infusion of lactic acid and the mast cell activator 48/80. Systemic blood pH was lowered to approximately […], the animals euthanized, and the hooves observed histopathologically. […]
smiles,measurement,setting,value
"CCCc1c2oc(C(=O)O)cc(=O)c2cc2c(=O)cc(C(=O)O)n(CC)c12 [Nedocromil sodium, disodium salt of 9-ethyl-6,9-dihydro-4,6-dioxo-10-propyl-4H-pyrano[3,2-g]-quinoline-2,8-dicarboxylic acid]",Toxicity and/or side effects,"Bovine Laminitis; bovine, in vivo",lack of toxicity and/or side effects
same,Protection from lactic acidosis,"Bovine Laminitis; calves 1 and 2, nedocromil sodium 1.5 g via jugular vein on days 1-4 and 6-7, 2 g on day 11 before carbohydrate mixture, observed 72 hours",protected from lactic acidosis
same,Histamine Levels,[1]; Lactic acid + 1 μl nedocromil sodium,15.810
same,Histamine Levels,[1]; Lactic acid + 2 μl nedocromil sodium,14.470
same,Inhibition of histamine release,"[1]; lactic acid-stimulated cells, increasing levels of nedocromil sodium",effective in inhibiting histamine release
same,"Findings (histology of hoof sections, inflammation)",Ovine Laminitis,No inflammation was observed; also recorded: effectively reduced short-term inflammation; also recorded: No significant findings
